In patent US10689383B2, “Optionally fused heterocyclyl-substituted derivatives of pyrimidine useful for the treatment of inflammatory, metabolic, oncologic and autoimmune diseases” (NUEVOLUTION A/S, priority 2014, dated 2020):

Columns and labels:
[1] = biological target: T1, human RORγt (Ligand Binding Domain) (Homo sapiens, UniProt P51449); experiment: Fluorescence Polarization (FP) Assay; details: Fluorescence Polarization (FP) Assay; values given as upper bounds of activity ranges; read-out: FP activity range
T1 construct: purchased Crelux (Planegg, Germany) batch no PC5032-1
T1 sequence (P51449 269-508 limits assumed): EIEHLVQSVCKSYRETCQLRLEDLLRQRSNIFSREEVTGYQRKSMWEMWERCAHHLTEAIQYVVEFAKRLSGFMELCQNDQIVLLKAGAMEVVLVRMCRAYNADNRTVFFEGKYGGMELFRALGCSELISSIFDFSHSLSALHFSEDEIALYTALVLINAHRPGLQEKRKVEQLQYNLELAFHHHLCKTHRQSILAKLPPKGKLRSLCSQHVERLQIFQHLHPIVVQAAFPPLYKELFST
How it was run: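 In vitro FP binding assay monitoring ligand binding within the ligand binding pocket. Probe is a TAMRA-labelled RORγt ligand (MW 910 g/mole); DMSO served as negative control.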

Th17 cells = experiment: Th17 Assay (IL-17 levels in supernatants by ELISA); assay type: cell-based; details: Homo sapiens; read-out: Th17 activity range @ 1 μM (% inhibition)
Experimental: The activity of the compounds was evaluated using a Fluorescence Polarization (FP) Assay and, in most cases, a Th17 Assay and/or RORγ Reporter assay (also referred to as Gal4 assay). The FP assay is an in vitro assay monitoring binding within the ligand binding pocket. The RORγ and the Th17 assays are both cell-based assays monitoring functional activity of the compound assayed.
Human peripheral blood mononuclear cells (PBMCs) were isolated from buffy coats of healthy human volunteers using the Ficoll paque PLUS kit (GE Healthcare, cat no 17-1440-02), as instructed by the manufacturer. Naive CD4+ T cells were isolated with Naive CD4+ T cell kit, human (Milteny Biotec, cat no 130-094-131). The following modifications were made to the manufacturer's protocol: 1) Incubation with Biotin-Antibody Cocktail and Anti-Biotin MicroBeads was prolonged to 30 minutes, and 2) Cells were washed with 40 mL of Miltenyi buffer. Differentiation of Th17 cells in anti-CD3 (BD Pharmingen, 5 μg/ml) coated 96-well plates (400,000 cells/well, 160 μl RPMI 1640+10% Fetal Bovine Serum) containing 5 μg/ml anti-CD28 (BD Pharmingen), 10 ng/ml IL-2 (R&D Systems), 2.5 ng/ml TGFβ-1 (R&D Systems), 20 ng/ml IL-1β (R&D Systems), 20 ng/ml IL-6 (R&D Systems), 30 ng/ml IL-23 (R&D Systems), 2.5 μg/ml anti-IL-4 (R&D Systems) and 1 μg/ml anti-IFNγ (R&D Systems) and with test compound during the entire differentiation (or vehicle, 0.1% DMSO for control). Test compounds were tested in triplicates, diluted 1000-fold in medium (final DMSO concentration is 0.1%). Incubated for seven days at 37° C., 5% CO2, 95% humidity, and 2-fluoro-4′-[[4-(4-pyridinylmethyl)-1-piperazinyl]methyl]-α,α-bis(trifluoromethyl)-[1,1′-biphenyl]-4-methanol (SR2211 Calbiochem, Cat. No. 557353) was used as positive control. As negative control, cells were differentiated into Th0 using 5 μg/ml anti-CD28 (BD Pharmingen), 10 ng/ml IL-2 (R&D Systems), 2 μg/ml anti-IL4 (R&D Systems) and 2 μg/ml anti-IFNγ (R&D Systems) are negative control. IL-17 levels in supernatants were measured with ELISA (R&D Systems).

[2] = biological target: T2, yeast Gal4-DNA binding domain fused to the ligand binding domain of human RORγ (Homo sapiens, UniProt P51449); experiment: RORγ Reporter Assay (Gal4); assay type: cell-based; details: values given as lower bounds of ranges; for Gal4 activity range @ 0.1 μM (% inhibition): RORγ Reporter Assay (Gal4) at 0.1 μM; for Gal4 activity range @ 1 μM (% inhibition): RORγ Reporter Assay (Gal4) at 1 μM
T2 construct: host or cells: HEK293t
T2 sequence (P51449 269-508 limits assumed): T1 sequence (P51449 269-508 limits assumed)
How it was run: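 HEK293t reporter cells expressing the hybrid, with Gal4-UAS-driven firefly luciferase, treated in triplicate with compound at 1,000 nM and 100 nM (0.1% DMSO) in medium with 10% charcoal-stripped FBS for 24 h at 37 °C. Luminescence read; percent reduction of RLU calculated relative to vehicle.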

| SMILES | IC50 [1] | inhibition at 1 µM (Th17 cells) | Gal4 activity range @ 0.1 μM (% inhibition) [2] | Gal4 activity range @ 1 μM (% inhibition) [2] |
| --- | --- | --- | --- | --- |
| CC(C)(C)C[C@@H](Nc1ncnc(N2CCCC2c2ccc(C(F)(F)F)cc2Cl)c1F)C(=O)O (stereo partly drawn) [Example 36, (2R)-2-[[6-[2-[2-chloro-4-(trifluoromethyl)phenyl]pyrrolidin-1-yl]-5-fluoro-pyrimidin-4-yl]amino]-4,4-dimethyl-pentanoic acid] | < 2000 nM | > 50% | – | – |
| CC(C)C[C@@H](Nc1ncnc(N2CC(C)CC2c2ccc(C(F)(F)F)cc2)c1F)C(=O)O (stereo partly drawn) [Example 33, (2R)-2-[[5-fluoro-6-[4-methyl-2-[4-(trifluoromethyl)phenyl]pyrrolidin-1-yl]pyrimidin-4-yl]amino]-4-methyl-pentanoic acid] | < 10000 nM | > 20% | – | – |
| N#Cc1ccc(CNc2ncnc(N3CCCC3c3ccc(C(F)(F)F)cc3)c2F)cc1 (stereo not drawn) [Example 88, 4-[[[5-fluoro-6-[2-[4-(trifluoromethyl)phenyl]pyrrolidin-1-yl]pyrimidin-4-yl]amino]methyl]benzonitrile] | < 500 nM | > 80% | – | – |
| CC1CCN(c2ncnc(N[C@H](CC(C)(C)C)C(N)=O)c2F)C1c1ccc(C(F)(F)F)cc1 (stereo partly drawn) [Example 38, (2R)-2-[[5-fluoro-6-[3-methyl-2-[4-(trifluoromethyl)phenyl]pyrrolidin-1-yl]pyrimidin-4-yl]amino]-4,4-dimethyl-pentanamide] | < 2000 nM | > 50% | – | – |
| CC(C)(C)C[C@@H](Nc1ncnc(N2CCCC2c2ccc(C(C)(C)C)cc2)c1F)C(N)=O (stereo partly drawn) [Example 19, (2R)-2-[[6-[2-(4-tert-butylphenyl)pyrrolidin-1-yl]-5-fluoro-pyrimidin-4-yl]amino]-4,4-dimethyl-pentanamide] | < 500 nM | > 80% | – | – |
| CC(C)C[C@@H](Oc1ncnc(N2CCC[C@@H]2c2ccc(C(F)(F)F)cc2)c1F)C(N)=O (single isomer, unassigned) [Example 77, (2R)-2-[5-fluoro-6-[(2R)-2-[4-(trifluoromethyl)phenyl]pyrrolidin-1-yl]pyrimidin-4-yl]oxy-4-methyl-pentanamide or (2R)-2-[5-fluoro-6-[(2S)-2-[4-(trifluoromethyl)phenyl]pyrrolidin-1-yl]pyrimidin-4-yl]oxy-4-methyl-pentanamide] | – | > 50% | – | – |
| NC(=O)Cc1ccc(CNc2ncnc(N3CCCC3c3ccc(C(F)(F)F)cc3)c2F)cc1 (stereo not drawn) [Example 40, 2-[4-[[[5-fluoro-6-[2-[4-(trifluoromethyl)phenyl]pyrrolidin-1-yl]pyrimidin-4-yl]amino]methyl]phenyl]acetamide] | < 1000 nM | > 80% | – | – |
| COc1ccc(C[C@H](CO)Nc2ncnc(N3CCCC3c3ccc(C(F)(F)F)cc3)c2F)cc1 (stereo partly drawn) [Example 29, (2R)-2-[[5-fluoro-6-[2-[4-(trifluoromethyl)phenyl]pyrrolidin-1-yl]pyrimidin-4-yl]amino]-3-(4-methoxyphenyl)propan-1-ol] | < 1000 nM | > 50% | – | – |
| COC(C)(C)CC(C)Nc1ncnc(N2CCCC2c2ccc(C(F)(F)F)cc2)c1F (stereo not drawn) [Example 16, 5-fluoro-N-(3-methoxy-1,3-dimethyl-butyl)-6-[2-[4-(trifluoromethyl)phenyl]pyrrolidin-1-yl]pyrimidin-4-amine] | – | > 0% | – | – |
| CC1CC(c2ccc(C(F)(F)F)cc2)N(c2ncnc(N[C@H](CC(C)(C)C)C(N)=O)c2F)C1 (stereo partly drawn) [Example 18, (2R)-2-[[5-fluoro-6-[4-methyl-2-[4-(trifluoromethyl)phenyl]pyrrolidin-1-yl]pyrimidin-4-yl]amino]-4,4-dimethyl-pentanamide] | < 500 nM | > 80% | – | – |
| CC(C)C[C@@H](Oc1ncnc(-n2nccc2-c2ccc(C(F)(F)F)cc2)c1F)C(N)=O [Example 80, (2R)-2-[5-fluoro-6-[5-[4-(trifluoromethyl)phenyl]pyrazol-1-yl]pyrimidin-4-yl]oxy-4-methyl-pentanamide] | – | > 50% | – | – |
| CS(=O)(=O)CC1(CNc2ncnc(N3CCOC[C@@H]3c3ccc(C(F)(F)F)cc3)c2F)CCOCC1 [Example 253, 5-fluoro-N-[[4-(methylsulfonylmethyl)tetrahydropyran-4-yl]methyl]-6-[(3S)-3-[4-(trifluoromethyl)phenyl]morpholin-4-yl]pyrimidin-4-amine] | < 1000 nM | – | >50 % inhibition | >80 % inhibition |
| CC1CC(c2ccc(C(F)(F)F)cc2)N(c2ncnc(NCc3ccc(CC(N)=O)cc3)c2F)C1 (stereo not drawn) [Example 248, 2-[4-[[[5-fluoro-6-[4-methyl-2-[4-(trifluoromethyl)phenyl]pyrrolidin-1-yl]pyrimidin-4-yl]amino]methyl]phenyl]acetamide] | < 1000 nM | – | >20 % inhibition | >80 % inhibition |
| NC(=O)C1(CNc2ncnc(N3CCOC[C@@H]3c3ccc(C(F)(F)F)cc3)c2F)CCOCC1 [Example 255, 4-[[[5-fluoro-6-[(3S)-3-[4-(trifluoromethyl)phenyl]morpholin-4-yl]pyrimidin-4-yl]amino]methyl]tetrahydropyran-4-carboxamide] | < 2000 nM | – | >20 % inhibition | >50 % inhibition |
| Fc1c(NCC2CCOCC2)ncnc1N1CCC[C@@H]1c1ccc(C(F)(F)F)cc1 [Example 208, 5-fluoro-N-(tetrahydropyran-4-ylmethyl)-6-[(2R)-2-[4-(trifluoromethyl)phenyl]pyrrolidin-1-yl]pyrimidin-4-amine] | < 500 nM | – | >50 % inhibition | >80 % inhibition |
| OCC1CCC(CNc2ncnc(N3CCC[C@@H]3c3ccc(C(F)(F)F)cc3)c2F)CC1 (stereo partly drawn) [Example 225, [4-[[[5-fluoro-6-[(2R)-2-[4-(trifluoromethyl)phenyl]pyrrolidin-1-yl]pyrimidin-4-yl]amino]methyl]cyclohexyl] methanol] | < 500 nM | – | >80 % inhibition | >80 % inhibition |
| O=C(O)Cc1ccc(COc2ncnc(NCc3ccc(C(F)(F)F)cc3)c2F)cc1 [Example 83, 2-[4-[[5-fluoro-6-[[4-(trifluoromethyl)phenyl]methylamino]pyrimidin-4-yl]oxymethyl]phenyl]acetic acid] | – | > 20% | – | – |
| O=C1CN(c2ccc(CNc3ncnc(N4CCCC4c4ccc(C(F)(F)F)cc4)c3F)cc2)CCN1 (stereo not drawn) [Example 60, 4-[4-[[[5-fluoro-6-[2-[4-(trifluoromethyl)phenyl]pyrrolidin-1-yl]pyrimidin-4-yl]amino]methyl]phenyl]piperazin-2-one] | < 2000 nM | – | – | >20 % inhibition |
| CC(C)(C)C[C@@H](Nc1ncnc(N2CCCC2c2ccc(C(F)(F)F)cc2)c1F)C1CNCCO1 (stereo partly drawn) [Example 64, N-[(1R)-3,3-dimethyl-1-morpholin-2-yl-butyl]-5-fluoro-6-[2-[4-(trifluoromethyl)phenyl]pyrrolidin-1-yl]pyrimidin-4-amine] | < 2000 nM | – | – | >20 % inhibition |
| CS(=O)(=O)N1CCC(CNc2ncnc(N3CCOC[C@@H]3c3ccc(C(F)(F)F)cc3)c2F)CC1 [Example 237, 5-fluoro-N-[(1-methylsulfonyl-4-piperidyl)methyl]-6-[(3S)-3-[4-(trifluoromethyl)phenyl]morpholin-4-yl]pyrimidin-4-amine] | < 500 nM | – | >80 % inhibition | >80 % inhibition |
